PubChem BioAssay (NCI)
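Compound exposure: 48 hours, 5 concentrations, 96-well plates. The concentration for full growth arrest is given as TGI.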 Where a SMILES comes first, the peptide text is derived from it. The star is where a group is joined. Boc = CC(C)(C)OC(=O)*

Tests used:
Test in all cases: NCI-60 cell line screen, 48 h
HL-60(TB) leukemia = tested on: HL-60(TB) leukemia
SN12C renal = tested on: SN12C renal
SF-295 CNS = tested on: SF-295 CNS
BT-549 breast = tested on: BT-549 breast
UO-31 renal = tested on: UO-31 renal
CAKI-1 renal = tested on: CAKI-1 renal
SK-MEL-2 melanoma = tested on: SK-MEL-2 melanoma
RPMI-8226 leukemia = tested on: RPMI-8226 leukemia
KM12 colon = tested on: KM12 colon
SK-MEL-5 melanoma = tested on: SK-MEL-5 melanoma
PC-3 prostate = tested on: PC-3 prostate
MDA-MB-435 = tested on: MDA-MB-435
SK-MEL-28 melanoma = tested on: SK-MEL-28 melanoma
OVCAR-4 ovarian = tested on: OVCAR-4 ovarian
UACC-257 melanoma = tested on: UACC-257 melanoma
RXF 393 renal = tested on: RXF 393 renal
IGROV1 ovarian = tested on: IGROV1 ovarian
SNB-19 CNS = tested on: SNB-19 CNS
786-0 renal = tested on: 786-0 renal
A549 NSCLC = tested on: A549 NSCLC
K-562 leukemia = tested on: K-562 leukemia
A498 renal = tested on: A498 renal
MALME-3M melanoma = tested on: MALME-3M melanoma
TK-10 renal = tested on: TK-10 renal
SK-OV-3 ovarian = tested on: SK-OV-3 ovarian
MCF7 breast = tested on: MCF7 breast
NCI-H460 lung = tested on: NCI-H460 lung
HCT-15 colon = tested on: HCT-15 colon
U251 CNS = tested on: U251 CNS
SW-620 colon = tested on: SW-620 colon
HT29 colon = tested on: HT29 colon
SF-539 CNS = tested on: SF-539 CNS
MOLT-4 leukemia = tested on: MOLT-4 leukemia
NCI-H226 lung = tested on: NCI-H226 lung
HOP-62 NSCLC = tested on: HOP-62 NSCLC
NCI-H522 lung = tested on: NCI-H522 lung
NCI-H23 lung = tested on: NCI-H23 lung
HOP-92 NSCLC = tested on: HOP-92 NSCLC
HCT-116 colon = tested on: HCT-116 colon
SNB-75 CNS = tested on: SNB-75 CNS
NCI/ADR-RES ovarian = tested on: NCI/ADR-RES ovarian
UACC-62 melanoma = tested on: UACC-62 melanoma
MDA-MB-231 breast = tested on: MDA-MB-231 breast
OVCAR-8 ovarian = tested on: OVCAR-8 ovarian
ACHN renal = tested on: ACHN renal
COLO 205 colon = tested on: COLO 205 colon
SF-268 CNS = tested on: SF-268 CNS
T-47D breast = tested on: T-47D breast
DU-145 prostate = tested on: DU-145 prostate
HS 578T breast = tested on: HS 578T breast
MDA-N = tested on: MDA-N
M14 melanoma = tested on: M14 melanoma
HCC-2998 colon = tested on: HCC-2998 colon
OVCAR-5 ovarian = tested on: OVCAR-5 ovarian
OVCAR-3 ovarian = tested on: OVCAR-3 ovarian
LOX IMVI melanoma = tested on: LOX IMVI melanoma
EKVX NSCLC = tested on: EKVX NSCLC

COC(=O)CNC(=O)C(Cc1ccccc1)NC(=O)C(CCSC)NC(=O)C(Cc1ccc(O)cc1)NC(=O)OC(C)(C)C (centres undefined) (Boc-YMFG-OMe; configuration not given here)
TGI (HL-60(TB) leukemia): > 100 µM | TGI (SN12C renal): > 100 µM | TGI (SF-295 CNS): > 100 µM | TGI (BT-549 breast): > 100 µM | TGI (UO-31 renal): > 100 µM | TGI (CAKI-1 renal): > 100 µM | TGI (SK-MEL-2 melanoma): 33.1 µM | TGI (RPMI-8226 leukemia): 50.2 µM | TGI (KM12 colon): > 100 µM | TGI (SK-MEL-5 melanoma): > 100 µM | TGI (PC-3 prostate): > 100 µM | TGI (MDA-MB-435): > 100 µM | TGI (SK-MEL-28 melanoma): 34.8 µM | TGI (OVCAR-4 ovarian): > 100 µM | TGI (UACC-257 melanoma): 38.2 µM | TGI (RXF 393 renal): > 100 µM | TGI (IGROV1 ovarian): > 100 µM | TGI (SNB-19 CNS): > 100 µM | TGI (786-0 renal): > 100 µM | TGI (A549 NSCLC): > 100 µM | TGI (K-562 leukemia): > 100 µM | TGI (A498 renal): > 100 µM | TGI (MALME-3M melanoma): > 100 µM | TGI (TK-10 renal): > 100 µM | TGI (SK-OV-3 ovarian): > 100 µM | TGI (MCF7 breast): > 100 µM | TGI (NCI-H460 lung): > 100 µM | TGI (HCT-15 colon): > 100 µM | TGI (U251 CNS): > 100 µM | TGI (SW-620 colon): > 100 µM | TGI (HT29 colon): > 100 µM | TGI (SF-539 CNS): > 100 µM | TGI (MOLT-4 leukemia): 38.9 µM | TGI (NCI-H226 lung): > 100 µM | TGI (HOP-62 NSCLC): > 100 µM | TGI (NCI-H522 lung): 43 µM | TGI (NCI-H23 lung): > 100 µM | TGI (HOP-92 NSCLC): 74.1 µM | TGI (HCT-116 colon): > 100 µM | TGI (SNB-75 CNS): > 100 µM | TGI (NCI/ADR-RES ovarian): > 100 µM | TGI (UACC-62 melanoma): > 100 µM | TGI (MDA-MB-231 breast): 52.8 µM | TGI (OVCAR-8 ovarian): > 100 µM | TGI (ACHN renal): > 100 µM | TGI (COLO 205 colon): > 100 µM | TGI (SF-268 CNS): 87.7 µM | TGI (T-47D breast): > 100 µM | TGI (DU-145 prostate): > 100 µM | TGI (HS 578T breast): > 100 µM | TGI (MDA-N): > 100 µM | TGI (M14 melanoma): > 100 µM | TGI (HCC-2998 colon): 64.1 µM | TGI (OVCAR-5 ovarian): > 100 µM | TGI (OVCAR-3 ovarian): 38.9 µM | TGI (LOX IMVI melanoma): 32.7 µM

COc1ccc(-c2cc(-c3ccco3)c(C#N)c(=S)n2C2OC(COC(C)=O)C(OC(C)=O)C(OC(C)=O)C2OC(C)=O)cc1 (centres undefined)
TGI (HL-60(TB) leukemia): 20.7 µM | TGI (SN12C renal): 24 µM | TGI (SF-295 CNS): 4.65 µM | TGI (BT-549 breast): 8.23 µM | TGI (UO-31 renal): 27.2 µM | TGI (CAKI-1 renal): 13.9 µM | TGI (RPMI-8226 leukemia): 22.8 µM | TGI (KM12 colon): 33.4 µM | TGI (SK-MEL-5 melanoma): 22.8 µM | TGI (PC-3 prostate): 16.5 µM | TGI (MDA-MB-435): 28.2 µM | TGI (SK-MEL-28 melanoma): 12.7 µM | TGI (OVCAR-4 ovarian): 10 µM | TGI (RXF 393 renal): 21.3 µM | TGI (IGROV1 ovarian): 29.5 µM | TGI (SNB-19 CNS): 19.1 µM | TGI (786-0 renal): 10.6 µM | TGI (A549 NSCLC): 24.5 µM | TGI (K-562 leukemia): > 100 µM | TGI (MALME-3M melanoma): 16.9 µM | TGI (TK-10 renal): 45.1 µM | TGI (SK-OV-3 ovarian): 26.8 µM | TGI (MCF7 breast): > 100 µM | TGI (NCI-H460 lung): 52 µM | TGI (HCT-15 colon): > 100 µM | TGI (U251 CNS): 17.8 µM | TGI (SW-620 colon): 93.2 µM | TGI (HT29 colon): 14.8 µM | TGI (SF-539 CNS): 4.56 µM | TGI (MOLT-4 leukemia): > 100 µM | TGI (NCI-H226 lung): 16.5 µM | TGI (HOP-62 NSCLC): 8.88 µM | TGI (NCI-H522 lung): 18 µM | TGI (HOP-92 NSCLC): 13 µM | TGI (HCT-116 colon): 22.8 µM | TGI (SNB-75 CNS): 17.7 µM | TGI (NCI/ADR-RES ovarian): 37.7 µM | TGI (UACC-62 melanoma): 14.4 µM | TGI (MDA-MB-231 breast): 16.1 µM | TGI (OVCAR-8 ovarian): 13 µM | TGI (ACHN renal): 19.4 µM | TGI (EKVX NSCLC): 32.2 µM | TGI (COLO 205 colon): 16.2 µM | TGI (SF-268 CNS): 23.5 µM | TGI (T-47D breast): 21.7 µM | TGI (DU-145 prostate): 20.3 µM | TGI (HS 578T breast): 21.1 µM | TGI (MDA-N): 19.2 µM | TGI (M14 melanoma): 17.7 µM | TGI (HCC-2998 colon): 48.4 µM | TGI (OVCAR-5 ovarian): 30.9 µM | TGI (OVCAR-3 ovarian): 19.7 µM | TGI (LOX IMVI melanoma): 15.1 µM
